Assay results reported in patent US20240287124A1, “PRODRUGS OF 4'-SUBSTITUTED NUCLEOSIDE REVERSE TRANSCRIPTASE INHIBITORS” (Merck Sharp & Dohme LLC, priority 2023, published 2024).
Converted amounts (≈) assume the structure as drawn. Read-outs that look alike come from different tables or passages of the source.

Key:
[1] = Aqueous solubility in PBS, pH 7.4; format: physicochemical; settings: pH 7.4 phosphate buffered saline, 24 hours, amorphous or crystalline material; for solubility at 24 h: phosphate buffered saline, pH 7.4, aqueous buffer, thermodynamic from solid, read-out: Aqu. Solubility
Description: Aqueous solubility of the compounds was determined by suspending excess solid (typically 0.3-0.5 mg) in PBS, pH 7.4, at a concentration of 0.5 mg/mL. The suspension was vortexed for 10-30 seconds to wet the material and stirred at 600 rpm for 24 hours. For analysis by UPLC, 150 μL aliquot sample was transferred into a […] PVDF spin filter and centrifuged at 14,000 rpm for 5 minutes. 100 μL of the filtrate was diluted with 100 μL 1:1 Acetonitrile (ACN):H2O. The resultant samples were analyzed using UPLC and quantified against a standard curve of the compound of interest dissolved in 1:1 ACN:H2O. The retains of the solids were checked by XRPD and PLM to determine if the phase of the material was crystalline or amorphous.

[2] = tested on: HIV-1 wild-type (R8) virus; assay: Viral KINetics in Green cells (VIKING) assay, HIV-1 replication in MT4-GFP reporter cells; format: cell-based; settings: MT4-GFP cells, HIV-1 wild-type (R8), read-out: Viking (10% NHS), IC50
Description: Antiviral potency of the compounds was determined based on their ability to block HIV-1 replication in a GFP reporter cell line; this assay is referred to as Viral KINetics in Green cells or VIKING assay. HIV-1 replication was monitored using MT4-gag-GFP clone D3 (hereafter designate MT4-GFP) cells, which are MT4 cells modified to harbor a GFP reporter gene, the expression of which is dependent on the HIV-1 proteins tat and rev. (MT4 is a human T-cell line that is particularly sensitive to HIV-1 replication.) HIV-1 infection of MT4-GFP cells results in GFP expression approximately 24 h post-infection. MT4-GFP cells were maintained at 37° C./5% CO2/90% relative humidity in RPMI 1640 supplemented with 10% fetal bovine serum, 100 U/mL penicillin/streptomycin, and […] G418 to maintain the reporter gene. For infections, MT4-GFP cells were placed in the same medium lacking G418 and infected overnight with HIV-1 wild-type (R8) virus at an approximate multiplicity of infection of 0.01 in the same incubation conditions. Cells were then washed and resuspended in RPMI 1640 containing 10% normal human serum at 2×10^5 cells/mL. Compound plates were prepared by dispensing compounds dissolved in DMSO into wells of 384-well poly D lysine-coated plates (0.2 μl/well) using an ECHO acoustic dispenser. Each compound was tested in a 10-point serial 3-fold dilution (typical final concentrations: 4 μM-0.2 nM). Controls included no inhibitor (DMSO only) and a combination of three antiviral agents as a positive control (efavirenz, indinavir, and an integrase strand transfer inhibitor at final concentrations of 4 μM each). Infected cells were added (50 μL/well) to compound plates and were maintained at 37° C./5% CO2/90% relative humidity. Infected cells were quantified at two time points, approximately 48 h and 72 h post-infection, by counting the number of green cells in each well using an Acumen eX3 scanner. The increase in the number of green cells over ˜24 h period gives the reproductive ratio, R, which is calculated by dividing the number of green cells at 72 h over those at 48 h post-infection. The percent inhibition caused by a test compound is calculated using the following formula: […]
The dose-response curves of each test compound were plotted as % inhibition versus the compound concentration. IC50 values were determined by non-linear 4-parameter fitting of the dose-response curves.

[3] = Human immunodeficiency virus 1, 10% normal human serum

Row | solubility at 24 h [1] [µg/mL] | Structure (SMILES) | IC50 [2, 3] [nM] | Aqu. Solubility [1] [µg/mL] | IC50 ([2]; 10% normal human serum) [nM]
1 | < 1 | C#C[C@]1(COC(=O)OCCCCCCCC)O[C@@H](n2ccc3c(N)nc(Cl)nc32)C[C@@H]1OC(=O)CC [Example 113] | 26 | – | –
2 | < 1 | C#C[C@]1(COCOC(=O)CCCCCCCCC)O[C@@H](n2ccc3c(N)nc(Cl)nc32)C[C@@H]1O [Example 136] | 3.2 | – | –
3 | 307 (≈ 696 µM) | C#C[C@]1(CO)O[C@@H](n2ccc3c(NC(=O)CCc4ccccc4)nc(Cl)nc32)C[C@@H]1O [Example 200] | 155 | – | –
4 | 71 (≈ 155 µM) | C#C[C@]1(COC(=O)OCCc2ccccc2)O[C@@H](n2ccc3c(N)nc(Cl)nc32)C[C@@H]1O [Example 124] | 3.6 | – | –
5 | 72 (≈ 163 µM) | C#C[C@]1(COC(=O)[C@H](C)c2ccccc2)O[C@@H](n2ccc3c(N)nc(Cl)nc32)C[C@@H]1O [Example 100] | 2.5 | – | –
6 | 2.4 (≈ 5.18 µM) | C#C[C@]1(COC(=O)CCCCC)O[C@@H](n2ccc3c(N)nc(Cl)nc32)C[C@@H]1OC(=O)CC [Example 188] | 17 | – | –
7 | < 1 | C#C[C@]1(COC(=O)OCCCC)O[C@@H](n2ccc3c(N)nc(Cl)nc32)C[C@@H]1OC(=O)OCC [Example 216] | 21 | – | –
8 | 37 (≈ 81.3 µM) | C#C[C@]1(COC(=O)CCCc2ccccc2)O[C@@H](n2ccc3c(N)nc(Cl)nc32)C[C@@H]1O [Example 129] | 3.1 | – | –
9 | 66 (≈ 149 µM) | C#C[C@]1(COC(=O)OCc2ccccc2)O[C@@H](n2ccc3c(N)nc(Cl)nc32)C[C@@H]1O [Example 114, ((2R,3S,5R)-5-(4-amino-2-chloro-7H-pyrrolo[2,3-d]pyrimidin-7-yl)-2-ethynyl-3-hydroxytetrahydrofuran-2-yl)methyl benzyl carbonate] | 3.9 | – | –
10 | < 1 | C#C[C@]1(COC(=O)OCc2cccnc2)O[C@@H](n2ccc3c(N)nc(Cl)nc32)C[C@@H]1CC(=O)CCCc1ccccc1 [Example 173] | 6.2 | – | –
11 | 21 (≈ 43.8 µM) | C#C[C@]1(COC(=O)OCCCCCCCCC)O[C@@H](n2ccc3c(N)nc(Cl)nc32)C[C@@H]1O [Example 126] | 2.6 | – | –
12 | < 1 | C#C[C@]1(CO)O[C@@H](n2ccc3c(N)nc(Cl)nc32)C[C@@H]1OC(=O)OCC1CCCCC1 [Example 154] | 3.5 | – | –
13 | 1.9 (≈ 2.98 µM) | C#C[C@]1(COC(=O)OCCCCC[C@@H]2SC[C@@H]3NC(=O)N[C@@H]32)O[C@@H](n2ccc3c(N)nc(Cl)nc32)C[C@@H]1OC(=O)OCC [Example 171] | 18 | – | –
14 | 143 (≈ 327 µM) | C#C[C@]1(CO)O[C@@H](n2ccc3c(N)nc(Cl)nc32)C[C@@H]1OC(=O)CCCOC(C)=O [Example 178] | 3.8 | – | –
15 | < 1 | C#C[C@]1(COC(=O)CCCCCCCCCCCCC)O[C@@H](n2ccc3c(N)nc(Cl)nc32)C[C@@H]1O [Example 87] | 3.8 | – | –
16 | 157 (≈ 375 µM) | C#C[C@]1(COC(=O)C2CCCCC2)O[C@@H](n2ccc3c(N)nc(Cl)nc32)C[C@@H]1O [Example 88] | 4.4 | – | –

The next lines start with the compound.

Row | Structure (SMILES) | solubility at 24 h [1] [µg/mL] | IC50 [2, 3] [nM] | Aqu. Solubility [1] [µg/mL] | IC50 ([2]; 10% normal human serum) [nM]
17 | C#C[C@]1(COC(=O)Cc2ccc(Br)cc2)O[C@@H](n2ccc3c(N)nc(Cl)nc32)C[C@@H]1O [Example 73, ((2R,3S,5R)-5-(4-amino-2-chloro-7H-pyrrolo[2,3-d]pyrimidin-7-yl)-2-ethynyl-3-hydroxytetrahydrofuran-2-yl)methyl 2-(4-bromophenyl)acetate] | 24 (≈ 47.5 µM) | 3.2 | – | –
18 | C#C[C@]1(COC(=O)Cc2ccc(Cl)cc2)O[C@@H](n2ccc3c(N)nc(Cl)nc32)C[C@@H]1O [Example 33, ((2R,3S,5R)-5-(4-amino-2-chloro-7H-pyrrolo[2,3-d]pyrimidin-7-yl)-2-ethynyl-3-hydroxytetrahydrofuran-2-yl)methyl 2-(4-chlorophenyl)acetate] | 41 (≈ 88.9 µM) | 2.4 | – | –
19 | C#C[C@]1(CO)O[C@@H](n2ccc3c(N)nc(Cl)nc32)C[C@@H]1OC(=O)OCc1oc(=O)oc1C [Example 56, (2R,3S,5R)-5-(4-amino-2-chloro-7H-pyrrolo[2,3-d]pyrimidin-7-yl)-2-ethynyl-2-(hydroxymethyl)tetrahydrofuran-3-yl((5-methyl-2-oxo-1,3-dioxol-4-yl)methyl) carbonate] | 122 (≈ 262 µM) | 2.3 | – | –
20 | C#C[C@]1(CO)O[C@@H](n2ccc3c(N)nc(Cl)nc32)C[C@@H]1OC(=O)Cc1ccc(F)cc1 [Example 31, (2R,3S,5R)-5-(4-amino-2-chloro-7H-pyrrolo[2,3-d]pyrimidin-7-yl)-2-ethynyl-2-(hydroxymethyl)tetrahydrofuran-3-yl 2-(4-fluorophenyl)acetate] | 11 (≈ 24.7 µM) | 4.6 | – | –
21 | C#C[C@]1(COCOC(=O)c2ccccc2)O[C@@H](n2ccc3c(N)nc(Cl)nc32)C[C@@H]1O [Example 51] | 309 (≈ 698 µM) | 2.2 | – | –
22 | C#C[C@]1(COC(=O)CCC23CC4CC(CC(C4)C2)C3)O[C@@H](n2ccc3c(N)nc(Cl)nc32)C[C@@H]1O [Example 62, ((2R,3S,5R)-5-(4-amino-2-chloro-7H-pyrrolo[2,3-d]pyrimidin-7-yl)-2-ethynyl-3-hydroxytetrahydrofuran-2-yl)methyl 3-(adamantan-1-yl)propanoate] | < 1 | 3.9 | – | –
23 | C#C[C@]1(COC(=O)CCCC[C@@H]2SC[C@@H]3NC(=O)N[C@@H]32)O[C@@H](n2ccc3c(N)nc(Cl)nc32)C[C@@H]1OC(=O)CCCC[C@@H]1SC[C@@H]2NC(=O)N[C@@H]21 [Example 74] | < 1 | 69 | – | –
24 | C#C[C@]1(CO)O[C@@H](n2ccc3c(N)nc(Cl)nc32)C[C@@H]1OC(=O)OCCc1ccccc1 [Example 64, (2R,3S,5R)-5-(4-amino-2-chloro-7H-pyrrolo[2,3-d]pyrimidin-7-yl)-2-ethynyl-2-(hydroxymethyl)tetrahydrofuran-3-yl phenethyl carbonate] | < 1 | 4.6 | – | –
25 | C#C[C@]1(CO)O[C@@H](n2ccc3c(N)nc(Cl)nc32)C[C@@H]1OC(=O)CCCCCCCC [Example 55, (2R,3S,5R)-5-(4-amino-2-chloro-7H-pyrrolo[2,3-d]pyrimidin-7-yl)-2-ethynyl-2-(hydroxymethyl)tetrahydrofuran-3-yl nonanoate] | < 1 | 2.2 | – | –
26 | C#C[C@]1(COC(=O)OCc2ccccc2)O[C@@H](n2ccc3c(N)nc(Cl)nc32)C[C@@H]1O [Example 122] | – | – | 107 | 4
27 | C#C[C@]1(CO)O[C@@H](n2ccc3c(N)nc(Cl)nc32)C[C@@H]1OC(=O)CCCCCCC [Example 24, (2R,3S,5R)-5-(4-amino-2-chloro-7H-pyrrolo[2,3-d]pyrimidin-7-yl)-2-ethynyl-2-(hydroxymethyl)tetrahydrofuran-3-yl octanoate] | < 1 | 1.7 | – | –
28 | C#C[C@]1(COP(=O)(N[C@@H](C)C(=O)OC(C)C)Oc2ccc3ccccc3c2)O[C@@H](n2ccc3c(N)nc(Cl)nc32)C[C@@H]1O (stereo partly drawn) [Example 76] | – | – | 23 | 31
29 | C#C[C@]1(CO)O[C@@H](n2ccc3c(N)nc(Cl)nc32)C[C@@H]1OC(=O)OC(CC)CC [Example 84] | 69 (≈ 163 µM) | 129 | – | –
30 | C#C[C@]1(CO)O[C@@H](n2ccc3c(N)nc(Cl)nc32)C[C@@H]1OC(=O)c1ccccn1 [Example 28, (2R,3S,5R)-5-(4-amino-2-chloro-7H-pyrrolo[2,3-d]pyrimidin-7-yl)-2-ethynyl-2-(hydroxymethyl)tetrahydrofuran-3-yl picolinate] | 68 (≈ 164 µM) | 4.3 | – | –
